From PMC12081684, “A three-dimensional high throughput assay identifies novel antibacterial molecules with activity against intracellular Shigella” (npj Antimicrobials and Resistance, 2025)
“And” between values parts separate entries of the source, which are not always exact repeats. Equal values may be shown once. Read-outs that look alike come from different tables or passages of the source.

Tests used:
[1] = system: intracellular S. flexneri SF_nanoluc in Caco-2 cells on Cytodex 3 beads; assay: microbe, parasite or virus in culture
Method: S. flexneri SF_nanoluc was grown overnight on a 50mgL^-1 kanamycin LB plate at 37 °C. Bacteria were scraped from the plate surface and sub-cultured in warm supplemented EMEM medium for 2 h (at 37 °C and 200 rpm) and diluted to get OD around 0.3 at 625 nm. Induction was performed in 500 ml or 1000 ml siliconized spinner flasks under closed culture conditions. 200 mg autoclaved Cytodex 3 beads (GE Healthcare), rehydrated with cation-free PBS (Sigma), were washed with supplemented EMEM medium and inoculated with 1.7 million Caco-2 cells/ml in half of the desired culture volume of the medium. The spinner vessel was kept static for 4 h in a humidified atmosphere of 5% CO2 at 37 °C, allowing Caco-2 cells to bind to beads. The remaining medium was added into the vessel and stirred at 32.5 rpm. The medium was changed every 72 h, and the induction was used on day 17 to ensure Caco-2 cells were fully differentiated.
Cell concentration induction was measured by NucleoCounter® NC-100™ (ChemoMetec Version 2.4). Cellular invasion was initiated by adding the bacterial stock into cell induction with optimal MOI, and the vessel was stationary for an hour before stirring at 22.5 rpm for 5 h in a humid atmosphere of 5% CO2 at 37 °C. After incubation, culture media was discarded by centrifugation; and a gentamicin protection assay was performed, in which cell beads were washed twice with a warm medium and EMEM containing gentamicin (100ug ml^-1) was added to the chamber of the system. The cell culture was incubated for 1 h with stirring and then washed three times with a warm medium before 25 μl of the invasive mixture was dispensed into each well. Plates were incubated for two days in a humid atmosphere of 5% CO2 at 37 °C before proceeding to develop the luminescent signal by adding 10 μl mixture of nanoluciferase substrate (Nano-Glo® Luciferase Assay System, N1130, Promega) into each well. After standing at room temperature for 30 min, luminescent signals were quantified by the Envision Reader (PerkinElmer) in focus luminescent mode. For the bacterial tracking, we used the green fluorescent protein in S. flexneri ATCC 12022GFP to monitor the invasion.
The HTS assay was performed in 384-well black clear-bottom plates (Greiner). Screening compounds were prepared with an appropriate DMSO concentration (0.5% in cell-based assay). Every assay plate contained 16 wells of DMSO as negative controls and 16 wells of moxifloxacin at a final concentration of 20 μM as positive controls. These controls were used to monitor assay quality through determination of Z’ factor as well as normalizing the data on a per-plate basis.
To assess the quality of the dose-response assay, 11 commercially available antimicrobials were used to evaluate the reliability of the HTS assay. The percentage of coefficient of variation (CV%) was calculated by accessing the IC50 (μM) deviation of selected positive controls. Intra-assay reproducibility was determined by comparing the IC50 that were generated in the same run of the two replicates. Inter-assay reproducibility was assessed by comparing the IC50 generated by two replicates of each day over two days. Intra-assay %CV should be <10%, while inter-assay %CV should be <15%. To validate the HTS assay configuration, a set of 10 thousand compounds was assayed in 384-well plates at a final concentration of 10 μM. Assay were run in duplicate and confirmed if needed, a validation data was assessed to analyse the pros and cons of the whole procedure.
Following screening, all non-novel structures were removed, and the remaining compounds were subjected to a dose response (DR) assay, which was set as 3-fold serial dilution started at 100uM each compound.
The raw data of the plate reader was imported and analysed in ActivityBase and Spotfire version 10.3.1.18 (TIBCO).

HepG2 cells = assay: In vitro cytotoxicity on HepG2 cells; type: cell-based; conditions: for IC50: Homo sapiens
From the text: Upon chemical review, the 15 hit compounds were reorganized based on structure similarity into 13 clusters. Two chemicals were considered as a series, and the remaining 11 clusters were singletons (Fig. 3). […] Four of the 15 structures carried an NO2 moiety, including two hits of Series 1, one hit of Series 2, and Singleton 7. Although the antibacterial activity of nitro-containing molecules is known to be broad, nitro groups have been extensively associated with mutagenicity and genotoxicity.

[2] = Experimental Chromlog / ChromLogD pH7.4 and PFI; type: physicochemical; conditions: for Chromlog pH7.4 (Expt): pH7.4, experimental
CAD solubility = type: physicochemical; conditions: Table 1
[3] = system: intracellular S. flexneri in Caco-2 cell monolayers; assay: Monolayer (plate-based) Caco-2 intracellular Shigella assay; type: cell-based, Shigella flexneri
From the text: The IC50 comparison between plate-based (monolayers) and bead-based assay was applied for control (Moxifloxacin) to validate and compare between two methods. The average IC50s from monolayer assays were lower than bead-based assays, but there was no significant difference (p value > 0.05, using Mann-Whitney test) between two methods (Supplementary Table 6).

[4] = Shigella flexneri, Caco-2, read-out: IC50 T1, 1st Batch, replicate T1
[5] = Shigella flexneri, Caco-2, read-out: IC50 T2, 1st Batch, replicate T2
[6] = Shigella flexneri, Caco-2, read-out: IC50 T3, 2nd Batch, replicate T3
[7] = Shigella flexneri, Caco-2, read-out: IC50 T4, 2nd Batch, replicate T4
[8] = Shigella flexneri, Caco-2, read-out: Caco2 IC50 (μM), Table 1, 3-D Caco-2 beads, intracellular S. flexneri
[9] = Shigella flexneri, Caco-2, read-out: Caco2 pIC50, Table 1 (converted), 3-D Caco-2 beads, intracellular S. flexneri
[10] = HepG2, Supplementary table 8, read-out: HepG2 pIC50 (converted)
[11] = HepG2, read-out: HepG2 pIC50, Table 1 (converted)
[12] = HepG2, Table 1, read-out: HepG2 pIC50 (converted)

| SMILES | IC50 [1, 4] | IC50 [1, 5] | IC50 [1, 6] | IC50 [1, 7] | Selectivity (log) Caco pIC50 vs Cytotox ([1]; Caco-2) | Selectivity (log) Caco pIC50 vs cytox ([1]; Caco-2) | IC50 [1, 8] | IC50 [1, 9] | Chromlog pH7.4 (Expt) [2] | CAD sol (CAD solubility) | other results |
| --- | --- | --- | --- | --- | --- | --- | --- | --- | --- | --- | --- |
| C[C@@H](O)[C@H]1C(=O)N2C(C(=O)O)=C(S[C@@H]3CN[C@H](C(=O)N(C)C)C3)[C@H](C)[C@H]12 [Meropenem, reference compound] | 0.349 µM | 0.365 µM | 0.404 µM | 0.399 µM |  |  |  |  |  |  |  |
| Cc1nn(-c2ccccc2)c(C)c1NC(=O)CN1C(=O)NC(C)(c2ccco2)C1=O (stereo not drawn) [Compound 14] |  |  |  |  | > 0.61 log | >0.61 log | 24.6 µM | 24.5 µM | 2.93 | >106 µg/mL | IC50 (HepG2 cells; [10]): > 100 µM; IC50 (HepG2 cells; [11]): > 0.1 µM |
| CN(C)[C@@H]1C(O)=C(C(N)=O)C(=O)[C@@]2(O)C(O)=C3C(=O)c4c(O)cccc4[C@@](C)(O)[C@H]3C[C@@H]12 [Tetracycline, reference compound] | 1.61 µM | 1.56 µM | 1.19 µM | 1.18 µM |  |  |  |  |  |  |  |
| COc1ccc2c(CC(=O)NC(c3ccc(Cl)cc3)C3CC3)coc2c1 (stereo not drawn) [Compound 13] |  |  |  |  | > 0.61 log | >0.61 log | 24.6 µM | 24.5 µM | 6.43 | 53 µg/mL | IC50 (HepG2 cells; [10]): > 100 µM; IC50 (HepG2 cells; [11]): > 1 µM |
| COc1ccc(-c2ccn(CC[C@](C)(C(=O)NO)S(C)(=O)=O)c(=O)c2)c(F)c1 [PF5081090, reference compound] |  |  |  |  |  |  |  |  |  |  | IC50 ([1]; read-out: IC50 T1, 1st Batch, replicate T1): 0.0957 µM; IC50 ([1]; read-out: IC50 T2, 1st Batch, replicate T2): 0.0919 µM; IC50 ([1]; read-out: IC50 T3, 2nd Batch, replicate T3): 0.0937 µM; IC50 ([1]; read-out: IC50 T4, 2nd Batch, replicate T4): 0.0938 µM |
| N#Cc1cnn2c1[nH]c(=O)c1sc(-c3ccccc3)cc12 [Compound 9] |  |  |  |  | 0.58 log | 0.58 log | 19.9 µM | 20 µM | 2.5 | 17 µg/mL | IC50 ([1]; Shigella flexneri, Caco-2, read-out: Caco2 pIC50, printed in Fig. 3 (converted)): 2 µM; IC50 (HepG2 cells; [12]): 75.9 µM |
| CNC(C)C1CCC(N)C(OC2C(N)CC(N)C(OC3OCC(C)(O)C(NC)C3O)C2O)O1 (stereo not drawn) [Gentamicin, reference compound] | 1.52 µM | 1.27 µM | 1.17 µM | 1.24 µM |  |  |  |  |  |  |  |
| CCn1c(-c2nonc2N)nc2c(-c3cccc(Cl)c3)ncc(C(O)c3ccn(C)n3)c21 (stereo not drawn) [Compound 7] |  |  |  |  | > 1.49 log | >1.49 log | 3.24 µM | 3.24 µM | 4.75 | 10 µg/mL | IC50 (HepG2 cells; [12]): > 100 µM |
| CC(=O)c1csc(-c2csc(C)n2)n1 [Compound 10] |  |  |  |  | 1.07 log | 1.07 log | 8.51 µM | 8.51 µM |  |  | IC50 (HepG2 cells; [11]): > 100 µM |
| COc1c(N2C[C@@H]3CCCN[C@@H]3C2)c(F)cc2c(=O)c(C(=O)O)cn(C3CC3)c12 [Moxifloxacin, reference compound] | 0.0252 µM | 0.0221 µM | 0.0235 µM | 0.0235 µM |  |  |  |  |  |  | IC50 ([1]; Shigella flexneri, Caco-2, read-out: IC50 (µM) Beads, Average, Average of three, Supplementary table 6): 0.0305 µM; IC50 ([1]; Shigella flexneri, Caco-2, read-out: IC50 (µM) Beads, single runs, Supplementary table 6): 0.0361 µM; IC50 ([1]; read-out: IC50 (µM) Beads, single runs, Supplementary table 6): 0.0327 µM and 0.0226 µM; IC50 ([3]; Shigella flexneri, Caco-2, Average of three, read-out: IC50 (µM) Monolayers, Average): 0.0232 µM; IC50 ([3]; Shigella flexneri, Caco-2, single runs, read-out: IC50 (µM) Monolayers): 0.0236 µM; IC50 ([3]; single runs, read-out: IC50 (µM) Monolayers): 0.0234 µM and 0.0228 µM |
| CN1C(=O)[C@H](NC(=O)NCc2ccccc2)N=C(c2ccccc2)c2ccccc21 [Compound 5] |  |  |  |  |  |  | 19.1 µM | 19.1 µM |  |  | Selectivity (log) Caco pIC50 vs Cytotox ([1]; Supplementary table 8, vs HepG2): > 0.72 log; Selectivity (log) Caco pIC50 vs cytox ([1]; Table 1, Caco2 pIC50 vs HepG2 pIC50): >0.72 log; IC50 (HepG2 cells; [12]): > 100 µM |
| NC(=O)c1ccccc1Oc1ccc(Cl)cc1[N+](=O)[O-] [Compound 11] |  |  |  |  | 0.61 log |  |  |  |  |  | IC50 ([1]; Shigella flexneri, Caco-2, read-out: Caco2 pIC50, Supplementary table 8 (converted)): 5.75 µM; HepG2 cytotoxicity (in words) (HepG2 cells): exhibit HepG2 cytotoxicity; IC50 (HepG2 cells; [10]): 23.4 µM |
| CC(=O)c1cccc(NC(=O)Nc2ccc(S(=O)(=O)Nc3cc(C)on3)cc2)c1 [Compound 15] |  |  |  |  | > 0.76 log | >0.61 log | 17.4 µM | 17.4 µM | 2.04 | >149 µg/mL | IC50 (HepG2 cells; [10]): > 100 µM; IC50 (HepG2 cells; [11]): > 0.01 µM |
| CO/N=C(\C(=O)N[C@@H]1C(=O)N2C(C(=O)O)=C(CSc3nc(=O)c(=O)[nH]n3C)CS[C@H]12)c1csc(N)n1 [Ceftriaxone, reference compound] | 0.0151 µM | 0.0151 µM | 0.0196 µM | 0.0196 µM |  |  |  |  |  |  |  |
| C[C@@H](O)[C@H]1C(=O)N2C(C(=O)O)=C([C@H]3CCCO3)S[C@H]12 [Faropenem, reference compound] | 1.3 µM | 1.23 µM | 1.43 µM | 1.44 µM |  |  |  |  |  |  |  |
| COc1ccc(C2Nc3nc4ccccc4n3C(C)=C2C(=O)Nc2ccccc2)cc1 (stereo not drawn) [Compound 8] |  |  |  |  | 0.38 log | 0.38 log | 22.9 µM | 22.9 µM | 4.77 | 10 µg/mL | HepG2 cytotoxicity (in words) (HepG2 cells): exhibit HepG2 cytotoxicity; IC50 (HepG2 cells; [12]): 55 µM |
| CC[C@H]1OC(=O)[C@H](C)[C@@H](O[C@H]2C[C@@](C)(OC)[C@@H](O)[C@H](C)O2)[C@H](C)[C@@H](O[C@@H]2O[C@H](C)C[C@H](N(C)C)[C@H]2O)[C@](C)(O)C[C@@H](C)CN(C)[C@H](C)[C@@H](O)[C@]1(C)O [Azithromycin, reference compound] | 0.569 µM | 0.51 µM | 0.624 µM | 0.624 µM |  |  |  |  |  |  |  |
| CC(C)c1noc2ncc(C(=O)c3ccccc3O)cc12 [Compound 12] |  |  |  |  | 1.80 log | 1.80 log | 1.59 µM | 1.58 µM | 6.05 | 44 µg/mL | IC50 (HepG2 cells; [10]): > 100 µM; IC50 (HepG2 cells; [11]): > 10 µM; PFI (Expt) ([2]; experimental): 9.05 |
